Reference: US20050228180A1, “Alpha, omega-dicarboximide derivatives as useful uro-selective a1a adrenoceptor blockers” (priority 2002, published 2005)
Where a name gives a salt, the structure may show the parent alone.

How the values were obtained:
α1A adrenoceptor = target: T1, α1A adrenoceptor (Rattus norvegicus, UniProt P43140); assay: Radioligand binding, [3H] prazosin displacement, rat submaxillary membranes; settings: for Ki: [3H] prazosin displacement, rat submaxillary membranes, read-out: Affinity (Ki) α1A (Rat Submaxillary); for α1B/α1A: ratio of binding affinities, rat liver / rat submaxillary
T1 construct: from tissue; host or cells: rat submaxillary gland membranes
T1 sequence (P43140 1-466): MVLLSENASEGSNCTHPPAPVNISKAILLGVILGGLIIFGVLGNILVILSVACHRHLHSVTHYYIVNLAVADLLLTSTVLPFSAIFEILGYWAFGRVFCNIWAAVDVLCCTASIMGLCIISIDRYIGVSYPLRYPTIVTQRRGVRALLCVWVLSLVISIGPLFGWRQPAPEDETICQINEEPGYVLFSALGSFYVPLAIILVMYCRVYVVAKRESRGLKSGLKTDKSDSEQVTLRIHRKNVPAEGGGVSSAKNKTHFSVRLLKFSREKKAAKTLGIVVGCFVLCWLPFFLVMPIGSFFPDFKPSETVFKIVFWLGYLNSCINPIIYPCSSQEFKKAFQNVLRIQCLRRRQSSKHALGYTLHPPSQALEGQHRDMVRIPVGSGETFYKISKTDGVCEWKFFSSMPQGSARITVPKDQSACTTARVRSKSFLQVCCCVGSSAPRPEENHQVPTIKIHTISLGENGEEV
Experimental: (§1) Receptor binding assays were performed using native a-adrenoceptors. The affinity of different compounds for α1A and α1B adrenoceptor subtypes was evaluated by studying their ability to displace specific [^3H] prazosin binding from the membranes of rat submaxillary and liver respectively (Michel et al., Br J Pharmacol, 1989: 98:883). The binding assays were performed according to U+Prichard et al. (Eur J Pharmacol, 1978; 50:87 with minor modifications.
(§2) Submaxillary glands were isolated immediately after sacrifice. The liver was perfused with buffer (Tris HCl 50 mM, NaCl 100 mM, 10 mM EDTA pH 7.4). The tissues were homogenised in 10 volumes of buffer (Tris HCl 50 mM, NaCl 100 mM, 10 mM EDTA pH 7.4). The homogenate was filtered through two layers of wet gauge and filtrate was centrifuged at 500 g for 10 min. The supernatant was subsequently centrifuged at 40,000 g for 45 min. The pellet thus obtained was resuspended in the same volume of assay buffer (Tris HCl 50 mM, 5 mM EDTA pH 7.4) and was stored at −70° C. until the time of assay.
(§3) The membrane homogenates (150-250 μg protein) were incubated in 250 μl of assay buffer (Tris HCl 50 mM, EDTA 5 mM, pH 7.4) at 24-25° C. for 1 hour. Non specific binding was determined in the presence of 300 nM prazosin. The incubation was terminated by vacuum filtration over GF/B fibre filters. The filters were then washed with ice cold 50 mM Tris HCl buffer (pH 7.4). The filtermats were dried and bound radioactivity retained on filters was counted. The IC50 and Kd were estimated by using the non-linear curve-fitting program using G Pad Prism software. The value of inhibition constant Ki was calculated from competitive binding studies by using Cheng & Prusoff equation (Cheng & Prusoff, Biochem Pharmacol, 1973, 22: 3099-3108), Ki=IC50/(1+L/Kd) where L is the concentration of [^3H] prazosin used in the particular experiment (Table 1).

α1B adrenoceptor = target: T2, α1B adrenoceptor (Rattus norvegicus, UniProt P15823); assay: Radioligand binding, [3H] prazosin displacement, rat liver membranes; settings: read-out: Affinity (Ki) α1B (Rat Liver)
T2 construct: from tissue; host or cells: rat liver membranes
T2 sequence (P15823 1-515): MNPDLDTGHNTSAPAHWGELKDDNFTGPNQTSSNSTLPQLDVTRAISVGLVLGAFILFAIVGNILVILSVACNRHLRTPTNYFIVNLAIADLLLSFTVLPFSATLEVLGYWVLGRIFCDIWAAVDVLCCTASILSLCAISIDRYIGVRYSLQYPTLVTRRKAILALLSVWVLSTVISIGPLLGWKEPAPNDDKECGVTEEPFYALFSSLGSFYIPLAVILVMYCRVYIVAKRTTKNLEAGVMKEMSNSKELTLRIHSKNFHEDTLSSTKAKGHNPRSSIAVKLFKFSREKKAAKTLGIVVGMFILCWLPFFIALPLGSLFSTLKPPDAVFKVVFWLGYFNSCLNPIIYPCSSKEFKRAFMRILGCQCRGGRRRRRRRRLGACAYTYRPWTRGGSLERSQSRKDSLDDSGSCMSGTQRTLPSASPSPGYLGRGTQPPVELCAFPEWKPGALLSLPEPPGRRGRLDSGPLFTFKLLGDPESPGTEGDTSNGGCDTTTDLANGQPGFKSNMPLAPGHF
Experimental: as §1, §2, §3

[1] = target: T3, α1A adrenoceptor (prostate) (Rattus norvegicus, UniProt P43140); assay: In vitro functional assay, isolated prostate, phenylepinephrine contraction; assay type: cell-based; settings: for Selectivity α1D/α1A: functional, from pKB; for Kb: rat prostate, phenylepinephrine, read-out: α Adrenoceptor Subtype (pKB) α1A (converted)
T3 construct: from tissue; host or cells: isolated prostate tissue
T3 sequence (P43140 1-466): T1 sequence (P43140 1-466)
Source text: (§4) In order to study selectivity of action of these compounds towards different a-adrenoceptor subtypes, the ability of these compounds to antagonise (α1D) prostate (α1A) and spleen (α1B) was studied. Aorta and spleen tissues were isolated from urethane anaesthetized (1.5 g/kg) male wister rats. Isolated tissues were mounted in organ bath containing Krebs Henseleit buffer of the following composition (mM): NaCl 118; KCl 4.7; CaCl2 2.5; MgSO4 7H2O 1.2; NaHCO3 25; KH2PO4 1.2; glucose 11.5. Buffer was maintained at 37° C. and aereated with a mixture of 95% O2 and 5% CO2. A resting tension of 2 g (aorta) or 1 g (spleen and prostate) was applied to tissues. Contractile response was monitored using a force displacement transducer and recorded on chart recorders. Tissues were allowed to equilibrate for 2 hours. At the end of equilibration period, concentration response curves to norepinephrine (aorta) and phenylepinephrine (spleen and prostate) were obtained in the absence and presence of tested compound (at concentration of […]). Antagonist affinity was calculated and expressed as pKB values in Table II.

α1D adrenoceptor (aorta) = target: T4, α1D adrenoceptor (aorta) (Rattus norvegicus, UniProt P23944); assay: In vitro functional assay, isolated aorta, norepinephrine contraction; assay type: cell-based; settings: read-out: α Adrenoceptor Subtype (pKB) α1D (converted)
T4 construct: Isolated tissues were mounted in organ bath containing Krebs Henseleit buffer; from tissue; host or cells: isolated rat aorta
T4 sequence (P23944 1-561): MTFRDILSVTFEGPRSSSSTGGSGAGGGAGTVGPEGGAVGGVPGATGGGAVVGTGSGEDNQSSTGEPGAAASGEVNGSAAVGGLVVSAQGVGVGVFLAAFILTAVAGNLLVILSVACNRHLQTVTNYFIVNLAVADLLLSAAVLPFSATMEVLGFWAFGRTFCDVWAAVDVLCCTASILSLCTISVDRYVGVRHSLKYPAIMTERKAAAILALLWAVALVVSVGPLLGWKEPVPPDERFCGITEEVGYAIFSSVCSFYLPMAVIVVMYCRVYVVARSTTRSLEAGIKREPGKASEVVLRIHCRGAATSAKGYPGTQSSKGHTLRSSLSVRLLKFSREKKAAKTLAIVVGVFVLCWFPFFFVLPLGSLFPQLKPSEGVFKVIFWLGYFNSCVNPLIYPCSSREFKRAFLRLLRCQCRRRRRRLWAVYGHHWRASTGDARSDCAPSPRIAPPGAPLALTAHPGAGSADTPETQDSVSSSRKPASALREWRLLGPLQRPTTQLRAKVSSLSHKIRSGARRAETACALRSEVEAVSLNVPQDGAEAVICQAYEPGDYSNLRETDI
Source text: as §4

Ki (α1A adrenoceptor)	α1B/α1A (α1A adrenoceptor)	Ki (α1B adrenoceptor)	Selectivity α1D/α1A [1]	Kb [1]	Kb (α1D adrenoceptor (aorta))	SMILES
1.5 nM	65	97 nM	1.3	0.427 nM	0.575 nM	CCOc1ccccc1N1CCN(CCCN2C(=O)C3CCC(O)CC3C2=O)CC1.Cl (stereo not drawn) [Compound No. 18, 2-[3-{4-(2-Ethoxyphenyl)piperazin-1-yl}propyl]-5-hydroxy-3a,4,5,6,7,7a-hexahydro-1H-isoindole-1,3(2H)-dione hydrochloride]
8.83 nM	237	2090 nM	105	1.58 nM	166 nM	CC(C)Oc1cc(N)ccc1N1CCN(CCCN2C(=O)C3CC=CCC3C2=O)CC1.Cl (stereo not drawn) [Compound No. 26, 2-[3-{4-(2-Isopropoxy-4-aminophenyl)piperazin-1-yl}propyl]-3a,4,7,7a-tetrahydro-1H-isoindole-1,3(2H)-dione hydrochloride]
2.8 nM	85	238 nM	45	0.229 nM	10.2 nM	CC(C)Oc1ccccc1N1CCN(CC(O)CN2C(=O)CCCC2=O)CC1.Cl (stereo not drawn) [Compound No. 29, 1-[4-(2-Isopropoxyphenyl)piperazin-1-yl]-2-hydroxy-3-(2,6-dioxopiperidin-1-yl)propane hydrochloride]
1.7 nM	231	393 nM	5.2	1.66 nM	8.71 nM	CC(C)Oc1ccccc1N1CCN(CC(O)CN2C(=O)C3CC4OC4CC3C2=O)CC1 (stereo not drawn) [Compound No. 30, 2-[3-{4-(2-Isopropoxyphenyl)piperazin-1-yl}-2-hydroxypropyl]-5,6-epoxy-3a,4,5,6,7,7a-hexahydro-1H-isoindole-1,3(2H)-dione]
2.3 nM	40	91 nM	3.3	1.45 nM	4.79 nM	O=C1C2CC=CCC2C(=O)N1CC(O)CN1CCN(c2ccccc2OCC(F)(F)F)CC1 (stereo not drawn) [Compound No. 31, 2-[3-{4-(2-(2,2,2-Trifluoroethoxyphenyl)piperazin-1-yl}-2-hydroxypropyl]-3a,4,7,7a-tetrahydro-1H-isoindole-1,3(2H)-dione hydrochloride]
0.18 nM	283	51 nM	23	0.676 nM	15.8 nM	O=C1C2CC3OC3CC2C(=O)N1CCCN1CCN(c2ccccc2OCC(F)(F)F)CC1 (stereo not drawn) [Compound No. 32, 2-[3-{4-(2-(2,2,2-Trifluoroethoxy)phenyl)piperazin-1-yl}propyl]-5,6-epoxy-3a,4,5,6,7,7a-hexahydro-1H-isoindole-1,3(2H)-dione]
1.95 nM	159	311 nM	15	1.26 nM	19.1 nM	O=C1C2CC3OC3CC2C(=O)N1CC(O)CN1CCN(c2ccccc2OCC(F)(F)F)CC1 (stereo not drawn) [Compound No. 34, 2-[3-{4-(2-(2,2,2-Trifluoroethoxy)phenyl)piperazin-1-yl}-2-hydroxypropyl]-5,6-epoxy-3a,4,5,7,7a-hexahydro-1H-isoindole-1,3(2H)-dione]
2.3 nM	31	71 nM				COC1=C(OC)CC2C(=O)N(CCCN3CCN(c4ccccc4OC(C)C)CC3)C(=O)C2C1 (stereo not drawn) [Compound No. 75, 2-[3-{4-(2-Isopropoxyphenyl)piperazin-1-yl}propyl]-5,6-dimethoxy-3a,4,7,7a-tetrahydro-1H-isoindole-1,3 (21H)-dione hydrochloride]
1.4 nM	137	192 nM				COC1CC2C(=O)N(CCCN3CCN(c4ccccc4OC(C)C)CC3)C(=O)C2CC1OC.Cl (stereo not drawn) [Compound No. 76, 2-[3-{4-(2-Isopropoxyphenyl)piperazin-1-yl}propyl]-5,6-dimethoxy-3a,4,5,6,7,7a-hexahydro-1H-isoindole-1,3(2H)-dione hydrochloride]
485 nM	1.9	916 nM				CC(C)Oc1ccccc1N1CCN(CCCN2C(=O)C3C(c4ccccc4)C=CC(c4ccccc4)C3C2=O)CC1 (stereo not drawn) [Compound No. 77, 2-[3-{4-(2-Isopropoxyphenyl)piperazin-1-yllpropyl]-4,7-diphenyl-3a,4,7,7a-tetrahydro-1H-isoindole-1,3(2H)-dione hydrochloride]
322 nM	1	334 nM				COc1ccccc1N1CCN(CCCN2C(=O)C3C(c4ccccc4)C=CC(c4ccccc4)C3C2=O)CC1.Cl (stereo not drawn) [Compound No. 78, 2-[3-{4-(2-Methoxyphenyl)piperazin-1-yl}propyl]-4,7-diphenyl-3a,4,7,7a-tetrahydro-1H-isoindole-1,3(2H)-dione hydrochloride]

SMILES	Ki (α1A adrenoceptor)	α1B/α1A (α1A adrenoceptor)	Ki (α1B adrenoceptor)	Selectivity α1D/α1A [1]	Kb [1]	Kb (α1D adrenoceptor (aorta))
CC(=O)OC1C=CCC2C(=O)N(CCCN3CCN(c4ccccc4OC(C)C)CC3)C(=O)C12 (stereo not drawn) [Compound No. 40, 2-[3-{4-(2-Isopropoxyphenyl)piperazin-1-yllpropyl]4-acetoxy-3a,4,7,7a-tetrahydro-1H-isoindole-1,3(2H)-dione hydrochloride]	0.82 nM	174	143 nM	4.5	0.339 nM	1.51 nM
